Experimental data published in US7220822B2, “CD28 mimetics for blocking T cell mediated immune reactions” (The Ohio State University, priority 2000, dated 2007).
Entries after “also recorded” stand apart in the source; their conditions may differ. Square brackets hold non-standard residues; d marks the D form. Peptide text beside a SMILES is read from it.

How the values were obtained:
[1] = system: CD4+ LNC from TCR Vβ 8.2 Vα 4 transgenic mice; experiment: Apoptosis (TUNEL, flow cytometry) of antigen-stimulated Vβ8.2+ CD4+ lymph node cells in vitro; format: cell-based, mouse
Method: To investigate whether the observed decrease in proliferative responses following treatment with CD28 peptides is a result of cell loss, cell death was measured by enzymatic in-situ labeling. Apoptotic cells among MBP NAc1-11 stimulated TCR Vβ 8.2+ CD4+ T cells were detected by staining with FITC labeled Tdt (terminal deoxynucleotidyl transferase). Cells incubated in DNAse served as positive control.
CD4+ T cells from pooled lymph nodes and spleen from B10.PL TCR Vβ 8.2 Vα 4 transgenic mice were cultured in RPMI 1640 in a 96 well round-bottom plate, essentially under the conditions specified for proliferation assays. Cells were harvested at the end of 48 hours and apoptotic cells among TCR Vβ 8.2+ CD4+ T cells were detected by the TUNEL method. Briefly, after washing twice with PBS containing 1-% rat serum, the cells were stained with PE labeled anti-mouseVβ 8.1,8.2 TCR (clone MR5-2) (Pharmingen, San Diego, Calif.) for 30 min at room temperature and washed. Subsequently, the cells were fixed with 4% paraformaldehyde in PBS for 30 min at room temperature. Then the cells were washed and permeabilized with 0.1% Triton X-100 in 0.1% sodium citrate for 2 min at 4° C. After washing, the DNA strand breaks in the cells were detected by incubating the cells with fluorescein labeled TUNEL mix (terminal deoxynucleotidyl transferase (Tdt)) for 60 min at 37° C. using an in situ cell death detection kit (Boehringer Mannheim, Mannheim, Germany) according to the manufacturer's recommendations. As a positive control, cells were incubated in DNAse (1 mg/ml) for 10 minutes at room temperature prior to incubation with TdT. The negative control consisted of cells incubated without TdT. Cells were then washed with PBS and analyzed by flow cytometry.

B10.PL mice with EAE = experiment: EAE in B10.PL mice immunized with GP-MBP in CFA, clinical score; format: in vivo, mouse; conditions: for clinical course (in words): single i.v. 500 μg on day 14 post-immunization, observed 26 days
Method: Female B10.PL mice (6–8 wk old) were obtained from The Jackson laboratory (Bar Harbor, Me.) and housed at the Ohio State University, (Columbus, Ohio).
Mice were injected subcutaneously over four sites on the flank with an emulsion containing 200 μg of guinea-pig-MBP in CFA containing 200 μg heat killed Mycobacterium tuberculosis, Jamaica strain. Pertussis toxin (List Biological, Campbell, Calif.) at 150 ng in 0.2 ml of PBS was given intraperitoneally at the time of immunization and 48 hours later. Animals were observed daily for clinical signs and scored as follows: 1, limp tail or waddling gait with tail tonicity; 2, waddling gait with limp tail (ataxia); 2.5 ataxia with partial paralysis of one limb, 3, partial hind-limb paralysis, 3.5 full paralysis of one limb with partial paralysis of the second limb, 4, full paralysis of two limbs, 4.5 moribund and 5, death. All mice immunized with MBP (200 μg) in CFA developed clinical disease varying between ataxia and complete hind limb paralysis by day 14 post-immunization. They were then distributed randomly into six groups with mean clinical score of each group approximately the same.
Groups of mice were left untreated or injected intravenously with 500 μg of EL CD28 or RI CD28 peptide mimetics, or LCD28, RLCD28 and DCD28 peptides. The mean clinical score of untreated mice continued to increase reaching a maximum of 3.4 on day 20. Similarly the disease continued to progress in mice treated with LCD28, RLCD28 and DCD28, reaching mean maximal clinical score of 3.8 (day 18), 3.4 (day 16 ) and 3.7 (day 16) respectively.
The biological activity of synthetic CD28 peptide analogues during antigen priming in vivo in EAE was then shown. B10.PL mice immunized with GP-MBP (200 μg) in CFA were either left untreated or injected intravenously 500 μg of EL CD28 or RI CD28 peptide mimetics or LCD28, RLCD28 and DCD28 peptides on the day of immunization. The vehicle treated mice and mice treated with: LCD28, RL CD28 and D CD28 peptide had maximum disease incidence of 100%, 100%, 91.5% and 91.5% and maximum mean cumulative score per day of 1.9, 1.8, 1.7 and 2 respectively. […] The effect of RI CD28 peptide injection lasted for the duration of observation (37 days) in one experiment.

[2] = system: CD4+ LNC bearing Vα4 Vβ8.2 TCR; experiment: IL-2 ELISPOT of antigen-stimulated CD4+ lymph node cells in vitro; format: cell-based, mouse; set-up: frequency of IL-2 secreting cells (in words): dose or concentration left out as unconfirmed; conditions: for number of IL-2 secreting NAc1-11 responders (in words): 75 μM and 100 μM peptide, p<0.05; for frequency of IL-2 secreting cells (in words): compared to untreated cells
Method: Augmentation of T cell proliferation following CD28 ligation is a result of its ability to increase the synthesis of IL-2. To determine whether the observed reduction in proliferation is reflected in the IL-2 secretion, the ELISPOT assay was performed.
Ninety-six well unifilter plates (Polyfiltronics, Rockland, Md.) were coated overnight at 4° C. with rat anti-mouse IL-2 (Clone JES6-1A12) (Pharmingen, Calif.) at 4 μg/ml. The plates were then washed 4× with sterile PBS and blocked with 1% BSA in DMEM for 2 h at room temperature. Subsequently, isolated single cell suspensions of CD4+ LNC (5×10^6 cells/ml) and splenocytes (10×10^6 cells/ml) were added with the antigens and CD28 peptides under the conditions as specified for the proliferation assays. After 24 h of culture in the incubator, the cells were removed by washing 3× with PBS and 4× with PBS containing Tween (1:2000) (PBST). Then biotinylated anti mouse-IL-2 (Clone JES6-5H4) (Pharmingen, Calif.) 2 μg/ml was added and incubated at 4° C. overnight. After washing 3× with PBST and 3× with PBS, goat anti-biotin antibody conjugated to alkaline phosphatase (Vector Laboratories Inc, Burlingame, Calif.) diluted to 1:1000 in PBST containing 1% BSA was added and incubated for 2 h at room temperature. The spots were visualized by adding BCIP/NBT phosphatase substrate (Kirkeguard & Perry Laboratories, Gaithesburg, Md.). Image analysis of ELISA spot assays was performed on a Series 1 Immunospot Image Analyzer (Autoimmun Diagnostika (US) Inc.) customized for analyzing ELISA spots to meet objective criteria for size, chromatic density, shape and color.

[3] = system: CD4+ lymphocytes of immunized mice; experiment: Apoptosis of CD4+ T cells in peptide-treated EAE mice (enzymatic labeling of nicked ends); format: in vivo, mouse; conditions: mice treated on the day of immunization
Method: This was done by quantifying the DNA strand breaks in CD4+ lymphocytes detected by enzymatic labeling of nicked ends. Cells incubated in DNAse served as positive control.

[4] = 150 μM peptide, 48 hr, versus untreated
[5] = single i.v. 500 μg on the day of immunization

| Structure (SMILES) | percentage of apoptotic cells (in words) [1, 4] | percentage of apoptotic cells (in words) ([1]; 150 μM peptide, 48 hr, versus untreated, listed as ELCD28) | clinical course (in words) (B10.PL mice with EAE) | maximum disease incidence (B10.PL mice with EAE; [5]) | maximum mean cumulative score per day (B10.PL mice with EAE; [5]) | number of IL-2 secreting NAc1-11 responders (in words) [2] | frequency of IL-2 secreting cells (in words) [2] | percentage of apoptotic CD4+ T cells [3] | percentage of apoptotic cells (in words) ([1]; 75 μM peptide, 48 hrs) | duration of effect of injection (B10.PL mice with EAE; single i.v. 500 μg on the day of immunization, one experiment, duration of observation) |
| --- | --- | --- | --- | --- | --- | --- | --- | --- | --- | --- |
| CC[C@H](C)[C@H](NC(=O)[C@@H](NC(=O)CNC(=O)[C@H](CC(N)=O)NC(=O)[C@H](CO)NC(=O)[C@H](CCCNC(=N)N)NC(=O)[C@H](CCC(=O)O)NC(=O)[C@H](CC(N)=O)NC(=O)[C@H](CC(=O)O)NC(=O)[C@H](CC(C)C)NC(=O)[C@H](Cc1ccc(O)cc1)NC(=O)[C@@H]1CCCN1C(=O)[C@@H]1CCCN1C(=O)[C@@H]1CCCN1C(=O)[C@H](Cc1ccc(O)cc1)NC(=O)[C@H](CCSC)NC(=O)[C@H](Cc1ccccc1)NC(=O)[C@H](CCC(=O)O)NC(=O)[C@@H](NC(=O)[C@H](CCCCN)NC(C)=O)[C@@H](C)CC)[C@@H](C)O)C(N)=O [EL CD28] (Ac-KIEFMYPPPYLDNERSNGTI-NH2) | Significant increase | significantly higher percentage | continued to show clinical improvement | 70% | 1.1 | Significant decrease | significantly reduced |  |  |  |
| CC[C@@H](C)[C@@H](NC(C)=O)C(=O)N[C@@H](C(=O)NCC(=O)N[C@H](CC(N)=O)C(=O)N[C@H](CO)C(=O)N[C@H](CCCNC(=N)N)C(=O)N[C@H](CCC(=O)O)C(=O)N[C@H](CC(N)=O)C(=O)N[C@H](CC(=O)O)C(=O)N[C@H](CC(C)C)C(=O)N[C@H](Cc1ccc(O)cc1)C(=O)N1CCC[C@@H]1C(=O)N1CCC[C@@H]1C(=O)N1CCC[C@@H]1C(=O)N[C@H](Cc1ccc(O)cc1)C(=O)N[C@H](CCSC)C(=O)N[C@H](Cc1ccccc1)C(=O)N[C@H](CCC(=O)O)C(=O)N[C@@H](C(=O)N[C@H](CCCCN)C(N)=O)[C@H](C)CC)[C@H](C)O [RI CD28] (Ac-[dI][dT]G[dN][dS][dR][dE][dN][dD][dL][dY][dP][dP][dP][dY][dM][dF][dE][dI][dK]-NH2) | significantly higher percentage; also recorded: Significant increase |  | continued to show clinical improvement | 60% | 0.74 | Significant decrease | significantly reduced | 16% | Significant increase | 37 days |
